{"source": "patent US12616665B2", "about": "“Neutrophil-to-lymphocyte ratio decreasing agent” (THERABIOPHARMA INC., priority 2020, dated 2026)", "tested_on": "neutrophil-to-lymphocyte ratio in blood", "test": "Neutrophil-to-lymphocyte ratio in venous blood after four weeks of curcumin-containing capsule intake", "assay_type": "in vivo, human", "description": "Each of 20 men and women of 60 years old or older was caused to take a curcumin-containing capsule (containing 90 mg of curcumin per capsule) twice a day in the morning and the evening for four weeks (daily dose 180 mg). Venous blood was collected at start and end of administration, and a neutrophil-to-lymphocyte ratio was measured.\nAs a result, in a non-parametric test (Wilcoxon code rank test), the neutrophil-to-lymphocyte ratio at start of administration was 1.7 (1.3, 2.1), whereas the neutrophil-to-lymphocyte ratio at end of administration was 1.4 (1.2, 1.7).", "data": [{"smiles": "COc1cc(/C=C/C(=O)/C=C(O)/C=C/c2ccc(O)c(OC)c2)ccc1O", "note": "[curcumin]", "values": [{"measurement": "neutrophil-to-lymphocyte ratio at end of administration", "setting": "after four weeks, 90 mg curcumin capsule twice a day (daily dose 180 mg), oral, 20 men and women of 60 years old or older, venous blood", "value": "1.4 (1.2, 1.7)"}, {"measurement": "neutrophil-to-lymphocyte ratio at start of administration", "setting": "baseline, 20 men and women of 60 years old or older, venous blood, spread in brackets not defined", "value": "1.7 (1.3, 2.1)"}, {"measurement": "change of neutrophil-to-lymphocyte ratio, start vs end of administration", "setting": "four weeks, daily dose 180 mg, non-parametric test (Wilcoxon code rank test)", "value": "significantly decreased"}]}]}
